Results reported in ChEMBL document CHEMBL1152664, “Visual observation of G-quadruplex DNA with the label-free fluorescent probe silole with aggregation-induced emission” (Bioorg Med Chem, 2009).
Calls of active or inactive are those of the source. No cut-off for these calls is given here.

Assays:
Assay type in all cases: nucleic-acid assay
[1] = tested on: Nucleic Acid; assay: Binding affinity to single stranded DNA23 assessed as formation of G-quadruplex DNA at 20 uM by UV light illumination photographic analysis in presence of exonuclase 1 and lithium cation
[2] = tested on: Nucleic Acid; assay: Binding affinity to single stranded DNA18 assessed as formation of G-quadruplex DNA at 20 uM by UV light illumination photographic analysis in presence of exonuclase 1 and lithium cation
[3] = tested on: Nucleic Acid; assay: Binding affinity to single stranded DNA20 assessed as formation of G-quadruplex DNA at 20 uM by circular dichroism assay in presence of KCl and exonuclase 1
[4] = tested on: Nucleic Acid; assay: Binding affinity to 21G telomeric DNA assessed as formation of G-quadruplex DNA at 20 uM by UV light illumination photographic analysis in presence of exonuclase 1 and bis-(benzimidazole)aryl
[5] = tested on: Nucleic Acid; assay: Binding affinity to 21G telomeric DNA assessed as formation of G-quadruplex DNA at 20 uM by circular dichroism assay in presence of KCl and exonuclase 1
[6] = tested on: Nucleic Acid; assay: Binding affinity to 21G telomeric DNA assessed as formation of d(G4T4g4) quadruplex DNA at 20 uM after 5 mins by label-free fluorescence spectroscopy in presence of exonuclase 1 and Na+ cation
[7] = tested on: Nucleic Acid; assay: Binding affinity to 21G telomeric DNA assessed as formation of c-kit G-quadruplex DNA at 20 uM by UV light illumination photographic analysis in presence of exonuclase 1 and KCl
[8] = tested on: Nucleic Acid; assay: Binding affinity to 21G telomeric DNA assessed as formation of G-quadruplex DNA at 20 uM after 45 mins by label-free fluorescence spectroscopy in presence of exonuclase 1, Li+ cation and TMPyP4
[9] = tested on: Nucleic Acid; assay: Binding affinity to single stranded DNA18 assessed as formation of G-quadruplex DNA at 20 uM by UV light illumination photographic analysis in presence of exonuclase 1 and KCl
[10] = tested on: Nucleic Acid; assay: Binding affinity to 21G telomeric DNA assessed as formation of VEGF G-quadruplex DNA at 20 uM by UV light illumination photographic analysis in presence of exonuclase 1 and KCl
[11] = tested on: Nucleic Acid; assay: Binding affinity to 21G telomeric DNA assessed as formation of G-quadruplex DNA at 20 uM after 5 mins by label-free fluorescence spectroscopy in presence of LiCl and exonulease 1
[12] = tested on: Nucleic Acid; assay: Binding affinity to single stranded DNA20 assessed as formation of G-quadruplex DNA at 20 uM after 45 mins in KCl-deficient buffer by label-free fluorescence spectroscopy in presence of exonuclase 1 and TMPyP4
[13] = tested on: Nucleic Acid; assay: Binding affinity to single stranded DNA20 assessed as formation of G-quadruplex DNA at 20 uM by circular dichroism assay in presence of lithium cation and exonuclase 1
[14] = tested on: Nucleic Acid; assay: Binding affinity to single stranded DNA20 assessed as formation of G-quadruplex DNA at 20 uM by circular dichroism assay in presence of sodium cation and exonuclase 1
[15] = tested on: Nucleic Acid; assay: Binding affinity to single stranded DNA23 assessed as formation of G-quadruplex DNA at 20 uM by circular dichroism assay in presence of sodium cation and exonuclase 1
[16] = tested on: Nucleic Acid; assay: Binding affinity to 21G telomeric DNA assessed as formation of d(G4T4g4) quadruplex DNA at 20 uM after 5 mins in Na+ cation-deficient buffer by label-free fluorescence spectroscopy in presence of exonuclase 1
[17] = tested on: Nucleic Acid; assay: Binding affinity to single stranded DNA20 assessed as formation of G-quadruplex DNA at 20 uM by UV light illumination photographic analysis in presence of exonuclase 1 and KCl
[18] = tested on: Nucleic Acid; assay: Binding affinity to single stranded DNA18 assessed as formation of G-quadruplex DNA at 20 uM by circular dichroism assay in presence of KCl and exonuclase 1
[19] = tested on: Nucleic Acid; assay: Binding affinity to 21G telomeric DNA assessed as formation of G-quadruplex DNA at 20 uM after 45 mins in KCl-deficient buffer by label-free fluorescence spectroscopy in presence of exonuclase 1 and TMPyP4
[20] = tested on: Nucleic Acid; assay: Binding affinity to 21G telomeric DNA assessed as formation of G-quadruplex DNA at 20 uM after 5 mins by label-free fluorescence spectroscopy in presence of exonuclase 1 and increasing concentration of KCl
[21] = tested on: Nucleic Acid; assay: Binding affinity to single stranded DNA23 assessed as formation of G-quadruplex DNA at 20 uM by circular dichroism assay in presence of KCl and exonuclase 1
[22] = tested on: Nucleic Acid; assay: Binding affinity to single stranded DNA18 assessed as formation of G-quadruplex DNA at 20 uM by UV light illumination photographic analysis in presence of exonuclase 1 and sodium cation
[23] = tested on: Nucleic Acid; assay: Binding affinity to single stranded DNA20 assessed as formation of G-quadruplex DNA at 20 uM by circular dichroism assay in presence of exonuclase 1 and bis-(benzimidazole)aryl
[24] = tested on: Nucleic Acid; assay: Binding affinity to single stranded DNA23 assessed as formation of G-quadruplex DNA at 20 uM by UV light illumination photographic analysis in presence of exonuclase 1 and sodium cation
[25] = tested on: Nucleic Acid; assay: Binding affinity to single stranded DNA23 assessed as formation of G-quadruplex DNA at 20 uM by UV light illumination photographic analysis in presence of exonuclase 1 and KCl
[26] = tested on: Nucleic Acid; assay: Binding affinity to single stranded DNA20 assessed as formation of G-quadruplex DNA at 20 uM by UV light illumination photographic analysis in presence of exonuclase 1 and lithium cation
[27] = tested on: Nucleic Acid; assay: Binding affinity to 21G telomeric DNA assessed as formation of G-quadruplex DNA at 20 uM after 45 mins by label-free fluorescence spectroscopy in presence of exonuclase 1, KCl and TMPyP4
[28] = tested on: Nucleic Acid; assay: Binding affinity to 21G telomeric DNA assessed as formation of c-myc G-quadruplex DNA at 20 uM by UV light illumination photographic analysis in presence of exonuclase 1 and KCl
[29] = tested on: Nucleic Acid; assay: Binding affinity to single stranded DNA20 assessed as formation of G-quadruplex DNA at 20 uM by UV light illumination photographic analysis in presence of exonuclase 1 and sodium cation
[30] = tested on: Nucleic Acid; assay: Binding affinity to 21G telomeric DNA assessed as formation of G-quadruplex DNA at 20 uM after 5 mins in KCl-deficient buffer by label-free fluorescence spectroscopy in presence of exonuclase 1
[31] = tested on: Nucleic Acid; assay: Binding affinity to single stranded DNA23 assessed as formation of G-quadruplex DNA at 20 uM by circular dichroism assay in presence of lithium cation and exonuclase 1
[32] = tested on: Nucleic Acid; assay: Binding affinity to 21G telomeric DNA assessed as formation of G-quadruplex DNA at 20 uM after 5 mins by label-free fluorescence spectroscopy in presence of exonuclase 1 and KCl
[33] = tested on: Nucleic Acid; assay: Binding affinity to single stranded DNA20 assessed as formation of G-quadruplex DNA at 20 uM by UV light illumination photographic analysis in presence of exonuclase 1 and bis-(benzimidazole)aryl
[34] = tested on: Nucleic Acid; assay: Binding affinity to single stranded DNA18 assessed as formation of G-quadruplex DNA at 20 uM by circular dichroism assay in presence of lithium cation and exonuclase 1
[35] = tested on: Nucleic Acid; assay: Binding affinity to 21G telomeric DNA assessed as formation of G-quadruplex DNA at 20 uM by circular dichroism assay in presence of exonuclase 1 and bis-(benzimidazole)aryl
[36] = tested on: Nucleic Acid; assay: Binding affinity to single stranded DNA18 assessed as formation of G-quadruplex DNA at 20 uM by circular dichroism assay in presence of sodium cation and exonuclase 1

Activity [1]: inactive
Activity [2]: inactive
Activity [3]: inactive
Activity [4]: Active
Activity [5]: Active
Activity [6]: Active
Activity [7]: Active
Activity [8]: inactive
Activity [9]: inactive
Activity [10]: Active
Activity [11]: inactive
Activity [12]: inactive
Activity [13]: inactive
Activity [14]: inactive
Activity [15]: inactive
Activity [16]: inactive
Activity [17]: inactive
Activity [18]: inactive
Activity [19]: inactive
Activity [20]: Active
Activity [21]: inactive
Activity [22]: inactive
Activity [23]: inactive
Activity [24]: inactive
Activity [25]: inactive
Activity [26]: inactive
Activity [27]: Active
Activity [28]: Active
Activity [29]: inactive
Activity [30]: inactive
Activity [31]: inactive
Activity [32]: Active
Activity [33]: inactive
Activity [34]: inactive
Activity [35]: Active
Activity [36]: inactive
SMILES: C[N+](C)(C)CCC[Si]1(C)C(c2ccccc2)=C(c2ccccc2)C(c2ccccc2)=C1c1ccccc1
